In patent US20240148874A1, “IMMUNOADJUVANT-BASED HYDROGEL COMPOSITION AND USE THEREOF” (SOOCHOW UNIVERSITY, priority 2020, published 2024):

Tests used:
Type in all cases: in vivo
CT26 colon cancer tumor [1] = assay: Chemotherapy sensitization in mouse colon cancer subcutaneous tumor model (Example 1); settings: CT26 tumor-bearing BALB/c mice, compared with control group; intratumoral 25 μL, CpG-ODN 15 μg per mouse; oxaliplatin 3 mg/kg i.v. days 7, 10, 13, 16
From the text: The sodium alginate hydrogel radiotherapy/chemotherapy sensitizing agent encapsulating the immunoadjuvant CpG-ODN was used for chemotherapy sensitization in a mouse colon cancer subcutaneous tumor model. The treatment was started on day 7 after inoculation of the mouse CT26 colon cancer tumor. Tumor-bearing BALB/c mice were randomly divided into the following 4 groups (6 mice in each group): Group 1: control group (untreated); Group 2: intratumoral injection of sodium alginate and intravenous injection of oxaliplatin (ALG+OxPt);
Group 3: intratumoral injection of sodium alginate hydrogel radiotherapy/chemotherapy sensitizing agent encapsulating the immunoadjuvant CpG-ODN (ALG/CpG); Group 4: intratumoral injection of sodium alginate hydrogel radiotherapy/chemotherapy sensitizing agent encapsulating the immunoadjuvant CpG-ODN, and intravenous injection of oxaliplatin (ALG/CpG+OxPt). The final concentration of sodium alginate in each treatment group was 10 mg/mL, the volume of intratumoral injection was 25 μL, and the dose of CpG-ODN per mouse was 15 μg. On days 7, 10, 13 and 16, oxaliplatin was administered intravenously at a dose of 3 mg/kg body weight. After respective treatments for the mice, the tumor growth was measured.

CT26 colon cancer tumor [2] = assay: Chemotherapy sensitization with smart hydrogel in colon cancer subcutaneous tumor mouse model (Example 3); settings: CT26 tumor-bearing BALB/c mice, compared with control group; CpG-ODN 15 μg per mouse intratumoral; oxaliplatin 3 mg/kg i.v. days 7, 10, 13, 16
Experimental: The mice were treated on day 7 after the inoculation of CT26 colon cancer tumor. Tumor-bearing BALB/c mice were randomly divided into the following 6 groups (6 mice in each group): Group 1: control group (untreated); Group 2: intratumoral injection of sodium alginate and intravenous injection of oxaliplatin (ALG+OxPt); Group 3: intratumoral injection of mixture of sodium alginate with CpG-ODN (ALG/CpG); Group 4: intratumoral injection of mixture of sodium alginate and CpG-ODN and intravenous injection of oxaliplatin (ALG/CpG+OxPt); Group 5: intratumoral injection of smart sodium alginate hydrogel preparation (ALG-Aapt/CpG) capable of ATP-responsive slow release of immunoadjuvant obtained in Step (5) of Example 2; Group 6: intratumoral injection of smart sodium alginate hydrogel preparation capable of ATP-responsive slow release of immunoadjuvant obtained in Step (5) of Example 2, and intravenous injection of oxaliplatin (ALG-Aapt/CpG+OxPt). The final concentration of sodium alginate in each treatment group was 10 mg/mL, the volume of intratumoral injection was 25 μL, and the dose of CpG-ODN per mouse was 15 μg. On days 7, 10, 13 and 16, oxaliplatin was administered intravenously at a dose of 3 mg/kg body weight. After respective treatments for the mice, the tumor growth was measured.

CT26 colon cancer tumor [3] = assay: Immune response evaluation in chemotherapy sensitization, colon cancer subcutaneous tumor mouse model (Example 4); settings: day 5 after treatment, CT26 BALB/c mice, compared with control group
Experimental: The mice were treated on day 7 after the inoculation of CT26 colon cancer tumor. Tumor-bearing BALB/c mice were randomly divided into the following 4 groups (6 mice in each group): Group 1: control group (untreated); Group 2: intratumoral injection of sodium alginate and intravenous injection of oxaliplatin (OxPt); Group 3: intratumoral injection of smart sodium alginate hydrogel preparation (ALG-A-Apt/CpG) capable of ATP-responsive slow release of immunoadjuvant obtained in Step (5) of Example 2; Group 4: intratumoral injection of smart sodium alginate hydrogel preparation capable of ATP-responsive slow release of immunoadjuvant obtained in Step (5) of Example 2 and intravenous injection of oxaliplatin (ALG-A-Apt/CpG@OxPt). The final concentration of sodium alginate in each treatment group was 10 mg/mL, the volume of intratumoral injection was 25 μL, and the dose of CpG-ODN per mouse was 15 μg. On days 7, 10, 13 and 16, oxaliplatin was administered intravenously at a dose of 3 mg/kg body weight. On day 5 after the treatment, mice in each group were sacrificed, and the maturity of dendritic cells in inguinal lymph nodes, percentage of CD8 positive T cells in the tumor, and ratio of CD8 positive T cells to regulatory T cells was identified.

oxaliplatin [ALG+OxPt]
tumor growth (CT26 colon cancer tumor [1]): significantly inhibited | tumor growth (CT26 colon cancer tumor [2]): only partially inhibited | percentage of CD8 positive T cells in the tumor (CT26 colon cancer tumor [3]): not significantly improved | ratio of CD8 positive T cells to regulatory T cells (CT26 colon cancer tumor [3]): not significantly improved | maturity of dendritic cells (DC) in lymph nodes (CT26 colon cancer tumor [3]; inguinal lymph nodes): not significantly improved
